Measurements: patent US11649255B2, “Indazoles as hematopoietic progenitor kinase 1 (HPK1) inhibitors and methods using same” (1st Biotherapeutics, Inc., priority 2020, dated 2023)

Target: recombinant human HPK1 (Homo sapiens (Human), UniProt Q92918)
Test: HPK1 kinase assay (ADP-Glo)
Format: biochemical
Conditions: 25 μM ATP, MBP substrate
Summary of the method: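 Activity was read as ADP formed, detected by ADP-Glo luminescence after the reaction of 5 ng recombinant human HPK1 with MBP and ATP (stocks 0.5 μg/μl and 25 μM) for 40 min at 30 °C. Buffer was Tris pH 7.5 with MgCl2, BSA and DTT, with compound in 0.5% DMSO. IC50 came from inhibition curves.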

Sequence of recombinant human HPK1 (Q92918 whole entry): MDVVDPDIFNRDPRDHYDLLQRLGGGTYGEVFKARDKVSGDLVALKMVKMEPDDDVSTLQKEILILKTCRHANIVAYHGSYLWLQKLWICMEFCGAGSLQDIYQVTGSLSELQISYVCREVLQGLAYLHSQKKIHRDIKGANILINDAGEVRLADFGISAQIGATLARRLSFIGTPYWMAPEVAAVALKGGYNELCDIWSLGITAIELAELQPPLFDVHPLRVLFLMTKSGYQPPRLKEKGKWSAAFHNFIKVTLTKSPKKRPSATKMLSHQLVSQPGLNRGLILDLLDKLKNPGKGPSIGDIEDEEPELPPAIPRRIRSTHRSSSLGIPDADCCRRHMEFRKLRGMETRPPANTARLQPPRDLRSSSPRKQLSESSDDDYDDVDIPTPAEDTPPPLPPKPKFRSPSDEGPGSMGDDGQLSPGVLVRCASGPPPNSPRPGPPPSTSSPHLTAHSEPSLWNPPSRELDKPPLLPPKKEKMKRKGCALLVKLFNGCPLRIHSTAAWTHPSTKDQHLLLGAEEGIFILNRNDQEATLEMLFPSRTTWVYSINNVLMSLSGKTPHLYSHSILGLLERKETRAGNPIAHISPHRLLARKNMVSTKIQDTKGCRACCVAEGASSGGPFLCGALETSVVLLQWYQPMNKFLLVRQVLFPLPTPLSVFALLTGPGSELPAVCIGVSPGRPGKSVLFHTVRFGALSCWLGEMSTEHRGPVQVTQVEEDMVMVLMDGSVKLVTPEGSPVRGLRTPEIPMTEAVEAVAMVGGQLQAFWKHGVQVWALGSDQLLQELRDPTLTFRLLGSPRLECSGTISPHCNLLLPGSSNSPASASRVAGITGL

Row | Compound | IC50 [nM]
1 | CCOc1c(F)c(Cl)c(-c2ccc3nc(NC(=O)[C@@H]4C[C@@H]4F)cn3c2)c2cn[nH]c12 [Example 275, (1S,2S)-N-(6-(5-chloro-7-ethoxy-6-fluoro-1H-indazol-4-yl)imidazo[1,2-a]pyridin-2-yl)-2-fluorocyclopropane-1-carboxamide] | < 100
2 | C=CC(=O)Nc1cc(Cl)c(-c2ccc3nc(NC(=O)[C@@H]4C[C@@H]4F)cn3c2)c2cn[nH]c12 [Example 276, (1S,2S)-N-(6-(7-acrylamido-5-chloro-1H-indazol-4-yl)imidazo[1,2-a]pyridin-2-yl)-2-fluorocyclopropane-1-carboxamide] | < 100
3 | CN1CCN(c2c(F)c(Cl)c(-c3ccc4nc(NC(=O)[C@@H]5C[C@@H]5F)cn4c3)c3cn[nH]c23)CC1 [Example 277, (1S,2S)-N-(6-(5-chloro-6-fluoro-7-(4-methylpiperazin-1-yl)-1H-indazol-4-yl)imidazo[1,2-a]pyridin-2-yl)-2-fluorocyclopropane-1-carboxamide] | 101 to 500
4 | Cc1ccc2[nH]ncc2c1-c1ccc2nc(NC(=O)C3CC3CO)cn2c1 (stereo not drawn) [Example 278, 2-(hydroxymethyl)-N-(6-(5-methyl-1H-indazol-4-yl)imidazo[1,2-a]pyridin-2-yl)cyclopropane-1-carboxamide] | > 1000
5 | O=C(Nc1cn2cc(-c3c(Cl)c(F)c(N4CCOCC4)c4[nH]ncc34)ccc2n1)[C@@H]1C[C@@H]1F [Example 279, (1S,2S)-N-(6-(5-chloro-6-fluoro-7-morpholino-1H-indazol-4-yl)imidazo[1,2-a]pyridin-2-yl)-2-fluorocyclopropane-1-carboxamide] | < 100
6 | CCNc1c(F)c(Cl)c(-c2ccc3nc(NC(=O)[C@@H]4C[C@@H]4F)cn3c2)c2cn[nH]c12 [Example 280, (1S,2S)-N-(6-(5-chloro-7-(ethylamino)-6-fluoro-1H-indazol-4-yl)imidazo[1,2-a]pyridin-2-yl)-2-fluorocyclopropane-1-carboxamide] | < 100
7 | CCN(CC)c1c(F)c(Cl)c(-c2ccc3nc(NC(=O)[C@@H]4C[C@@H]4F)cn3c2)c2cn[nH]c12 [Example 281, (1S,2S)-N-(6-(5-chloro-7-(diethylamino)-6-fluoro-1H-indazol-4-yl)imidazo[1,2-a]pyridin-2-yl)-2-fluorocyclopropane-1-carboxamide] | < 100
8 | O=C(Nc1cn2cc(-c3c(Cl)c(F)c(N4CCCC4)c4[nH]ncc34)ccc2n1)[C@@H]1C[C@@H]1F [Example 282, (1S,2S)-N-(6-(5-chloro-6-fluoro-7-(pyrrolidin-1-yl)-1H-indazol-4-yl)imidazo[1,2-a]pyridin-2-yl)-2-fluorocyclopropane-1-carboxamide] | < 100
9 | O=C(Nc1cn2cc(-c3c(Cl)c(F)c(N4CCC4)c4[nH]ncc34)ccc2n1)[C@@H]1C[C@@H]1F [Example 283, (1S,2S)-N-(6-(7-(azetidin-1-yl)-5-chloro-6-fluoro-1H-indazol-4-yl)imidazo[1,2-a]pyridin-2-yl)-2-fluorocyclopropane-1-carboxamide] | < 100
10 | Nc1cc2[nH]ncc2c(-c2ccc3nc(NC(=O)[C@@H]4C[C@@H]4F)cn3c2)c1Cl [Example 284, (1S,2S)-N-(6-(6-amino-5-chloro-1H-indazol-4-yl)imidazo[1,2-a]pyridin-2-yl)-2-fluorocyclopropane-1-carboxamide] | 101 to 500
11 | COc1cc(C)c(-c2ccc3nc(NC(=O)[C@@H]4C[C@@H]4F)cn3c2)c2cn[nH]c12 [Example 285, (1S,2S)-2-fluoro-N-(6-(7-methoxy-5-methyl-1H-indazol-4-yl)imidazo[1,2-a]pyridin-2-yl)cyclopropane-1-carboxamide] | < 100
12 | C=CC(=O)Nc1cc2[nH]ncc2c(-c2ccc3nc(NC(=O)[C@@H]4C[C@@H]4F)cn3c2)c1Cl [Example 286, (1S,2S)-N-(6-(6-acrylamido-5-chloro-1H-indazol-4-yl)imidazo[1,2-a]pyridin-2-yl)-2-fluorocyclopropane-1-carboxamide] | > 1000
13 | CCOc1cc(C)c(-c2ccc3nc(NC(=O)[C@@H]4C[C@@H]4F)cn3c2)c2cn[nH]c12 [Example 287, (1S,2S)-N-(6-(7-ethoxy-5-methyl-1H-indazol-4-yl)imidazo[1,2-a]pyridin-2-yl)-2-fluorocyclopropane-1-carboxamide] | < 100
14 | CCOc1c(F)c(C)c(-c2ccc3nc(NC(=O)[C@@H]4C[C@@H]4F)cn3c2)c2cn[nH]c12 [Example 288, (1S,2S)-N-(6-(7-ethoxy-6-fluoro-5-methyl-1H-indazol-4-yl)imidazo[1,2-a]pyridin-2-yl)-2-fluorocyclopropane-1-carboxamide] | < 100
15 | C=CC(=O)Nc1cc2[nH]ncc2c(-c2ccc3nc(NC(=O)[C@@H]4C[C@@H]4F)cn3c2)c1C [Example 289, (1S,2S)-N-(6-(6-acrylamido-5-methyl-1H-indazol-4-yl)imidazo[1,2-a]pyridin-2-yl)-2-fluorocyclopropane-1-carboxamide] | > 1000
16 | O=C(Nc1cn2cc(-c3c(Cl)c(F)c(SCCO)c4[nH]ncc34)ccc2n1)[C@@H]1C[C@@H]1F [Example 290, (1S,2S)-N-(6-(5-chloro-6-fluoro-7-((2-hydroxyethyl)thio)-1H-indazol-4-yl)imidazo[1,2-a]pyridin-2-yl)-2-fluorocyclopropane-1-carboxamide] | < 100
17 | Cc1c(F)c(SCCO)c2[nH]ncc2c1-c1ccc2nc(NC(=O)[C@@H]3C[C@@H]3F)cn2c1 [Example 292, (1S,2S)-2-fluoro-N-(6-(6-fluoro-7-((2-hydroxyethyl)thio)-5-methyl-1H-indazol-4-yl)imidazo[1,2-a]pyridin-2-yl)cyclopropane-1-carboxamide] | < 100
18 | CCc1c(F)cc2[nH]ncc2c1-c1ccc2nc(NC(=O)[C@@H]3C[C@@H]3F)cn2c1 [Example 294, (1S,2S)-N-(6-(5-ethyl-6-fluoro-1H-indazol-4-yl)imidazo[1,2-a]pyridin-2-yl)-2-fluorocyclopropane-1-carboxamide] | < 100
19 | O=C(Nc1cn2cc(-c3c(Cl)c(F)c(O)c4[nH]ncc34)ccc2n1)[C@@H]1C[C@@H]1F [Example 295, (1S,2S)-N-(6-(5-chloro-6-fluoro-7-hydroxy-1H-indazol-4-yl)imidazo[1,2-a]pyridin-2-yl)-2-fluorocyclopropane-1-carboxamide] | < 100
20 | CCc1c(F)c(F)c2[nH]ncc2c1-c1ccc2nc(NC(=O)[C@@H]3C[C@@H]3F)cn2c1 [Example 298, (1S,2S)-N-(6-(5-ethyl-6,7-difluoro-1H-indazol-4-yl)imidazo[1,2-a]pyridin-2-yl)-2-fluorocyclopropane-1-carboxamide] | < 100
21 | Cc1c(F)c([S+](C)[O-])c2[nH]ncc2c1-c1ccc2nc(NC(=O)[C@@H]3C[C@@H]3F)cn2c1 (stereo partly drawn) [Example 299, (1S,2S)-2-fluoro-N-(6-(6-fluoro-5-methyl-7-(methylsulfinyl)-1H-indazol-4-yl)imidazo[1,2-a]pyridin-2-yl)cyclopropane-1-carboxamide] | 101 to 500
22 | CSc1c(F)c(N(C)C)c2[nH]ncc2c1-c1ccc2nc(NC(=O)[C@@H]3C[C@@H]3F)cn2c1 [Example 300, (1S,2S)-N-(6-(7-(dimethylamino)-6-fluoro-5-(methylthio)-1H-indazol-4-yl)imidazo[1,2-a]pyridin-2-yl)-2-fluorocyclopropane-1-carboxamide] | < 100
23 | CC(=O)Nc1c(F)c(Cl)c(-c2ccc3nc(NC(=O)[C@@H]4C[C@@H]4F)cn3c2)c2cn[nH]c12 [Example 301] | < 100
24 | Cc1c(F)c(S(C)(=O)=O)c2[nH]ncc2c1-c1ccc2nc(NC(=O)[C@@H]3C[C@@H]3F)cn2c1 [Example 302, (1S,2S)-2-fluoro-N-(6-(6-fluoro-5-methyl-7-(methylsulfonyl)-1H-indazol-4-yl)imidazo[1,2-a]pyridin-2-yl)cyclopropane-1-carboxamide] | 101 to 500
25 | C[S+]([O-])c1c(F)c(Cl)c(-c2ccc3nc(NC(=O)[C@@H]4C[C@@H]4F)cn3c2)c2cn[nH]c12 (stereo partly drawn) [Example 303, (1S,2S)-N-(6-(5-chloro-6-fluoro-7-(methylsulfinyl)-1H-indazol-4-yl)imidazo[1,2-a]pyridin-2-yl)-2-fluorocyclopropane-1-carboxamide] | < 100
26 | CSc1c(F)c(F)c2[nH]ncc2c1-c1ccc2nc(NC(=O)[C@@H]3C[C@@H]3F)cn2c1 [Example 304, (1S,2S)-N-(6-(6,7-difluoro-5-(methylthio)-1H-indazol-4-yl)imidazo[1,2-a]pyridin-2-yl)-2-fluorocyclopropane-1-carboxamide] | < 100
27 | COC(=O)c1c(F)c(C)c(-c2ccc3nc(NC(=O)[C@@H]4C[C@@H]4F)cn3c2)c2cn[nH]c12 [Example 305, methyl 6-fluoro-4-(2-((1S,2S)-2-fluorocyclopropane-1-carboxamido)imidazo[1,2-a]pyridin-6-yl)-5-methyl-1H-indazole-7-carboxylate] | < 100
28 | CCN(C)c1c(F)c(Cl)c(-c2ccc3nc(NC(=O)[C@@H]4C[C@@H]4F)cn3c2)c2cn[nH]c12 [Example 306, (1S,2S)-N-(6-(5-chloro-7-(ethyl(methyl)amino)-6-fluoro-1H-indazol-4-yl)imidazo[1,2-a]pyridin-2-yl)-2-fluorocyclopropane-1-carboxamide] | < 100
29 | CN(C)c1c(F)c(C(F)(F)F)c(-c2ccc3nc(NC(=O)[C@@H]4C[C@@H]4F)cn3c2)c2cn[nH]c12 [Example 307, (1S,2S)-N-(6-(7-(dimethylamino)-6-fluoro-5-(trifluoromethyl)-1H-indazol-4-yl)imidazo[1,2-a]pyridin-2-yl)-2-fluorocyclopropane-1-carboxamide] | < 100
30 | CC(=O)Nc1c(F)c(C)c(-c2ccc3nc(NC(=O)[C@@H]4C[C@@H]4F)cn3c2)c2cn[nH]c12 [Example 308, (1S,2S)-N-(6-(7-acetamido-6-fluoro-5-methyl-1H-indazol-4-yl)imidazo[1,2-a]pyridin-2-yl)-2-fluorocyclopropane-1-carboxamide] | 101 to 500
